Test results taken from patent JP2011219500A, “ムスカリンレセプターアンタゴニストとしての有用なビフェニル化合物” (Theravance Inc, priority 2011, dated 2011).
pKi: −log10 of the molar value. Where two headings read alike, the source gives them in different places.

Tests used:
[1] = target: T1, M3 muscarinic receptor subtype (M3ムスカリン性レセプターサブタイプ) (Homo sapiens, UniProt P20309); assay: Assay 1: radioligand binding assay ([3H]-NMS displacement)
T1 construct: expressed in transfected cells; membrane preparation

hM3 receptor (hM3レセプター) = target: T2, hM3 receptor (hM3レセプター) (Homo sapiens, UniProt P20309); assay: Assay 2C: blockade of agonist-mediated calcium release via FLIPR assay; type: cell-based
T2 construct: expressed in transfected cells

[2] = system: ACh-induced bronchoconstriction (ACh誘導性気管支収縮); assay: Assay 3: duration of bronchoprotection in guinea pig model of acetylcholine-induced bronchoconstriction; type: in vivo; conditions: inhalation, 1.5 h post-dose

T1 sequence (P20309 whole entry): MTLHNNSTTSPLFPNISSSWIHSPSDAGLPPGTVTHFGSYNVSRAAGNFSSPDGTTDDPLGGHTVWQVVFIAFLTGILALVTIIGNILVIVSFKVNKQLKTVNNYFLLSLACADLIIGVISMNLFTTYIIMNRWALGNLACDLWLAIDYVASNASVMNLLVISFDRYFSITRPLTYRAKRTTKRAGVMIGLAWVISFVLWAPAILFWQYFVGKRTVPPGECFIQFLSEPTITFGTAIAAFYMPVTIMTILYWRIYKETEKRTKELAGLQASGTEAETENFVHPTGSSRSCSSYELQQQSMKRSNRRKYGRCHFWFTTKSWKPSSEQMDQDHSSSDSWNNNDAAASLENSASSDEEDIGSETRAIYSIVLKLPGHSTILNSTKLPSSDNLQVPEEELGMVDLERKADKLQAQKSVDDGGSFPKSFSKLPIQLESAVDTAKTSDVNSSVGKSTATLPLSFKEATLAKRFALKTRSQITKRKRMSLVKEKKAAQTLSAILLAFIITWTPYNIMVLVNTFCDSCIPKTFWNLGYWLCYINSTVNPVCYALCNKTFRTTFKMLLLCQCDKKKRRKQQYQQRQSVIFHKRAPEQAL
T2 sequence (P20309 whole entry): as above

Row | pKi ([1]; M3 subtype, [3H]-NMS displacement, CHO cell membranes, printed as less than about, read-out: Ki) | Structure (SMILES) | pKi (hM3 receptor (hM3レセプター)) | pKi [1] | PD2(50) [2]
1 | > 8.30 | CCN(CCN1CCC(OC(=O)Nc2ccccc2-c2ccccc2)CC1)C(=O)c1ccc(CN2CCC(C(N)=O)CC2)cc1 [実施例2, ビフェニル−2−イルカルバミン酸 1−(2−{[4−(4−カルバモイルピペリジン−1−イルメチル)−ベンゾイル]エチルアミノ}エチル)ピペリジン−4−イルエステル] | – | – | –
2 | – | CN(CCN1CCC(OC(=O)Nc2ccccc2-c2ccccc2)CC1)C(=O)c1ccc(CN2CCC(C(N)=O)CC2)cc1 [実施例1, ビフェニル−2−イルカルバミン酸 1−(2−{[4−(4−カルバモイルピペリジン−1−イルメチル)ベンゾイル]メチルアミノ}エチル)ピペリジン−4−イルエステル] | > 8.30 | > 8.30 | < 200 µg/mL
